How the values were obtained:
[1] = molecular target: T1, Lysine-specific demethylase 2B (Homo sapiens, UniProt Q8NHM5); assay: Inhibition of recombinant human C-terminal FLAG-tagged FBXL10 (1 to 650 residues) expressed in baculovirus infected sf9 cells using H3K36me2-biotin peptide as substrate after 30 mins in presence of alpha-ketoglutaric acid by AlphaScreen assay
T1 sequence (Q8NHM5 whole entry): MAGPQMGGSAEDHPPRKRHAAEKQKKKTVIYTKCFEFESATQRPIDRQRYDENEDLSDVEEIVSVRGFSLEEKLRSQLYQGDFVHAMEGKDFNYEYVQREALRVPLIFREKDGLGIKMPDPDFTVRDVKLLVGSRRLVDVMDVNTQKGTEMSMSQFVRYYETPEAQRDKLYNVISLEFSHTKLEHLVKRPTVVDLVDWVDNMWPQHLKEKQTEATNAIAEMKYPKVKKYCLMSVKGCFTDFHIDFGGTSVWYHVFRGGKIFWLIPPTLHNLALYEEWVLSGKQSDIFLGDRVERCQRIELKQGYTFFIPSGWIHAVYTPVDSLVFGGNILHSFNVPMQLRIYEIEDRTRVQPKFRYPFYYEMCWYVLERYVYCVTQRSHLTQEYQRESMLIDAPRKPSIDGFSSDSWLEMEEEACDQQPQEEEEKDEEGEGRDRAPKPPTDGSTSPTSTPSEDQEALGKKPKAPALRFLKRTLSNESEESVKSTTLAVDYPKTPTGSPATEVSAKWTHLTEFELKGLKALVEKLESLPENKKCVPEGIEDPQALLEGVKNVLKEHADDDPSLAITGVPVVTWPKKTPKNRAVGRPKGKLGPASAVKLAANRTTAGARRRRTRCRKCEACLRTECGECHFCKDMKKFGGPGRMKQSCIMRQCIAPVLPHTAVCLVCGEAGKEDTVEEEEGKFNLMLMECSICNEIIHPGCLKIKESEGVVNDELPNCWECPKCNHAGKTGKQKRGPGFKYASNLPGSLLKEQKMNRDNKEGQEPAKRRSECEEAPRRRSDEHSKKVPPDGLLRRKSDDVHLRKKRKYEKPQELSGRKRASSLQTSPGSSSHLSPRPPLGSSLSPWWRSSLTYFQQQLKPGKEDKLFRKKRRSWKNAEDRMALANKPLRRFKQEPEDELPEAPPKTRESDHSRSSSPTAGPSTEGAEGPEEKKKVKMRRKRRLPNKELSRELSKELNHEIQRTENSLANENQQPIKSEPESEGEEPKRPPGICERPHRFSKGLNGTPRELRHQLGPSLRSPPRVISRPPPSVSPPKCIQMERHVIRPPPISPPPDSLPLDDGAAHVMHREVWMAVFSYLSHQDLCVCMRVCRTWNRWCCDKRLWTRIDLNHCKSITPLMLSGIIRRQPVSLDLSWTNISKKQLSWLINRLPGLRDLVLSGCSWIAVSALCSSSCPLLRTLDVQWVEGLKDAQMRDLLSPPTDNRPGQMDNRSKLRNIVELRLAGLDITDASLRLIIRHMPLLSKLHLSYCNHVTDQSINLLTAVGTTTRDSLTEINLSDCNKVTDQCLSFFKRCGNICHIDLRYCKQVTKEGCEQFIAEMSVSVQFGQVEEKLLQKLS

[2] = molecular target: Lysine-specific demethylase 5A/5B (Homo sapiens, UniProt P29375+Q9UGL1); assay: Inhibition of KDM5A/KDM5B in human ZR-75-1 cells assessed as increase in H3K4me3 level after 72 hrs by fluorometric immunoblot analysis; type: cell-based
[3] = molecular target: Lysine-specific demethylase 5B (Homo sapiens, UniProt Q9UGL1); assay: Inhibition of recombinant human N-terminal His-FLAG tagged JARID1B (2 to 751 residues) expressed in baculovirus infected sf9 cells using H3K4me3-biotin peptide as substrate after 30 mins in presence of alpha-ketoglutaric acid by LANCE TR-FRET assay
Chain of Lysine-specific demethylase 5B (Q9UGL1 whole entry, the tested form may be a part): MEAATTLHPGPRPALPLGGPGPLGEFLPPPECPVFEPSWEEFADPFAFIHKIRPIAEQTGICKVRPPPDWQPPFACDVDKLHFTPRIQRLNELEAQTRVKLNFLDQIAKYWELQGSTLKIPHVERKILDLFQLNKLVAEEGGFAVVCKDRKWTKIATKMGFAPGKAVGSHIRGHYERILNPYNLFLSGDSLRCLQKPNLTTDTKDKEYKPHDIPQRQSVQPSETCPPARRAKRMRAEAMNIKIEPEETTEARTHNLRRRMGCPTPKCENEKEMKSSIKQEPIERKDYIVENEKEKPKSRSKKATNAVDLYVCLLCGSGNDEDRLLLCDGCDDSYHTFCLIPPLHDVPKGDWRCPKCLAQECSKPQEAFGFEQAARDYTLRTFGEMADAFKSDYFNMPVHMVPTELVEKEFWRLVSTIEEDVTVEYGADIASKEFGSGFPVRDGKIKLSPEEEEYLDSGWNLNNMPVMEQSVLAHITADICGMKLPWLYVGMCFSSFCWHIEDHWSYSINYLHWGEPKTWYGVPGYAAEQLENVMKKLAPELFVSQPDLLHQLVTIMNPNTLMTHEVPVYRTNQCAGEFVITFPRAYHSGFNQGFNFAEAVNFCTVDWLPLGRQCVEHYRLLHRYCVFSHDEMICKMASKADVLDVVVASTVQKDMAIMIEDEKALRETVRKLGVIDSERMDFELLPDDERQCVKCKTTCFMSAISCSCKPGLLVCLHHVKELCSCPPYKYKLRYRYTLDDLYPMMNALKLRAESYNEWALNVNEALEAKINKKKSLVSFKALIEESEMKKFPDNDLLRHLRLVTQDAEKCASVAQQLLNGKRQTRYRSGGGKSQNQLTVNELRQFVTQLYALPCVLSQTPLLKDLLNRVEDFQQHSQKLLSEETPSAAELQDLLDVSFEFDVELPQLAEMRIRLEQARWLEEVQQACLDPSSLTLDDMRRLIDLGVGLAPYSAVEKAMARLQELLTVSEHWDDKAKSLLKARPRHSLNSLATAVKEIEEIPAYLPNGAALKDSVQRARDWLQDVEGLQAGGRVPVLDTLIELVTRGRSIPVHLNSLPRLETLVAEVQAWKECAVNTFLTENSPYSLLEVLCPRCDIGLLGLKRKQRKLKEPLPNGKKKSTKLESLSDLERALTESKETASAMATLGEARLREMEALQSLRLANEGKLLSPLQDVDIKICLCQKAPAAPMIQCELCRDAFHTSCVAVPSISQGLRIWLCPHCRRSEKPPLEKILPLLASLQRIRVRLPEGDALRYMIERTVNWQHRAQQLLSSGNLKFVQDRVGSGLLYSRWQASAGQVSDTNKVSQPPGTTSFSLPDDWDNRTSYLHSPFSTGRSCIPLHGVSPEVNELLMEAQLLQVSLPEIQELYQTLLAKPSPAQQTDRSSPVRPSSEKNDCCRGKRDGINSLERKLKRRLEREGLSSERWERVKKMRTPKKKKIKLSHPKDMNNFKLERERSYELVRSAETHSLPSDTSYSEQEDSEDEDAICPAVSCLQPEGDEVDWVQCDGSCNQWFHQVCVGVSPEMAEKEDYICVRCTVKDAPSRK

[4] = molecular target: T2, Lysine-specific demethylase 4C (Homo sapiens, UniProt Q9H3R0); assay: Inhibition of recombinant human N-terminal GST-tagged JMJD2C (2 to 372 residues) expressed in baculovirus infected sf9 cells using H3K9me3-biotin peptide as substrate after 30 mins in presence of alpha-ketoglutaric acid by LANCE TR-FRET assay
T2 sequence (Q9H3R0 whole entry): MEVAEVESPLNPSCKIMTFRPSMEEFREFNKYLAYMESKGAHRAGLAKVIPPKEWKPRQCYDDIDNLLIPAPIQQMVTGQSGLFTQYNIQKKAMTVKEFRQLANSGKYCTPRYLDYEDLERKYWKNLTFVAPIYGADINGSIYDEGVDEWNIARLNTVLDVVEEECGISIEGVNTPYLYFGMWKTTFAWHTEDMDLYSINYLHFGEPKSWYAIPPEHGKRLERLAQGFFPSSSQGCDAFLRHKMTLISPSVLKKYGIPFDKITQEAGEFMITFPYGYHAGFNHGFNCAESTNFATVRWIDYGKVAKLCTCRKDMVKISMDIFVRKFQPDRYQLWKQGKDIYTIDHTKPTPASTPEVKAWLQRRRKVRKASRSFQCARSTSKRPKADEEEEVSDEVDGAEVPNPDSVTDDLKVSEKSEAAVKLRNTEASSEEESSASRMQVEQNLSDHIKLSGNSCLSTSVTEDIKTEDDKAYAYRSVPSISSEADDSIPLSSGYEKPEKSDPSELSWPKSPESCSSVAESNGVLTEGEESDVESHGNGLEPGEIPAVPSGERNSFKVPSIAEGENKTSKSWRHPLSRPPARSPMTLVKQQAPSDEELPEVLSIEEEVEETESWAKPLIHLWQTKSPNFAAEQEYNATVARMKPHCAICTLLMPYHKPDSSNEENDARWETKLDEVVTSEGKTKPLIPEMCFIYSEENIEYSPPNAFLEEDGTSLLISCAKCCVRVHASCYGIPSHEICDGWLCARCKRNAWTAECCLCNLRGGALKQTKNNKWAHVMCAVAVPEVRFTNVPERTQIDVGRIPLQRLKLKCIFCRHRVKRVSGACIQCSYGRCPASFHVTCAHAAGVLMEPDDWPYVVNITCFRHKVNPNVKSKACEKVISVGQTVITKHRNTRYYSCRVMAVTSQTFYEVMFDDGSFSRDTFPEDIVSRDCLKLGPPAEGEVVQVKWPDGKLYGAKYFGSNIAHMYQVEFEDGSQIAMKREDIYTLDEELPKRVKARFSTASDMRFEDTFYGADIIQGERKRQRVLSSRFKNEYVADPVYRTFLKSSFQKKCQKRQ

- IC50 [1]: 100 to 1000 nM
- IC50 [2]: 1000 to 10000 nM
- IC50 [3]: 100 to 1000 nM
- IC50 [4]: 1000 to 10000 nM
Compound: COc1ccc(-c2c(-c3cc(C(=O)O)ccn3)ncn2C)cc1

— ChEMBL document CHEMBL4257223, “Histone demethylase inhibitors” (2016)
